# Assay results as given in PubChem BioAssay (NCI).
#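 Following 48 hours of exposure in 96-well plates, responses at five concentrations were used to interpolate endpoints linearly. TGI denotes the concentration required for complete inhibition of growth.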
# Test system: SN12K1 renal
# Assay: NCI-60 cell line screen, 48 h
smiles,measurement,value
CCSc1nc(COC(=O)NC)c(COC(=O)NC)n1C,TGI,> 100 µM
